The values below come from ChEMBL document CHEMBL1828523, “Synthesis and stereospecificity of 4,5-disubstituted oxazolidinone ligands binding to T-box riboswitch RNA” (J Med Chem, 2011).

Structures are written as SMILES.

In one assay the target is Nucleic Acid. Description: Binding affinity to Bacillus subtilis antiterminator AM1A RNA model after 130 mins by FRET assay. Type of assay: nucleic-acid assay.
Usually Kd stands for the free concentration of one partner at which half of the binding sites on the other are occupied at equilibrium, for simple one-to-one binding. Read a high Kd as a looser complex. As for `O=C(Cc1ccccc1)OC[C@@H]1OC(=O)N[C@H]1CN1CCN(c2ccccc2)CC1`, the Kd came to 16 µM. `CC(=O)c1ccc(NC(=O)OC[C@@H]2OC(=O)N[C@H]2CN2CCN(c3ccccc3)CC2)cc1` registered an equilibrium dissociation constant (Kd) of 1.6 µM. The same measure, in the same setting: with `O=C(Cc1ccccc1)OC[C@H]1OC(=O)N[C@@H]1CN1CCN(c2ccccc2)CC1` the figure was 12 µM; with `CC(=O)c1ccc(NC(=O)OC[C@H]2OC(=O)N[C@@H]2CN2CCN(c3ccccc3)CC2)cc1`, 3 µM; with `O=C(Cc1ccccc1)OC[C@H]1OC(=O)N[C@H]1CN1CCN(c2ccccc2)CC1` (racemic), greater than 100 µM. Consider `CC(=O)c1ccc(NC(=O)OC[C@H]2OC(=O)N[C@H]2CN2CCN(c3ccccc3)CC2)cc1` (racemic), for which binding was characterised by a dissociation constant (Kd) of 1.8 µM.

The target in the next assay is Nucleic Acid. Kind of assay: Binding affinity to Bacillus subtilis antiterminator AM1A RNA model after 70 mins by FRET assay. Type of assay: nucleic-acid assay.
Compound `O=C(Cc1ccccc1)OC[C@H]1OC(=O)N[C@H]1CN1CCN(c2ccccc2)CC1` (racemic) returned a Kd of 5.1 µM.
